Laboratory results from ChEMBL document CHEMBL1772970, “Potent bivalent Smac mimetics: effect of the linker on binding to inhibitor of apoptosis proteins (IAPs) and anticancer activity” (J Med Chem, 2011).
Active and inactive are the calls of the source. The calls are words filed in the database; no cut-off is given here.

Experiments:
[1] = target: T1, E3 ubiquitin-protein ligase XIAP (Homo sapiens, UniProt P98170); assay: Competitive inhibition of His-tagged human XIAP BIR3 domain expressed in Escherichia coli BL21(DE3) after 2 to 3 hrs by fluorescence polarization assay
[2] = target: T1, E3 ubiquitin-protein ligase XIAP; assay: Competitive inhibition of human XIAP linker BIR2-BIR3 domain expressed in Escherichia coli BL21(DE3) cells by fluorescence polarization-based assay
[3] = target: T1, E3 ubiquitin-protein ligase XIAP
MDA-MB-231 [4] = assay: cells; conditions: Homo sapiens
[5] = target: T1, E3 ubiquitin-protein ligase XIAP; assay: biochemical
MDA-MB-231 [6] = assay: Induction of apoptosis in human MDA-MB-231 cells assessed as cIAP1 degradation at 10 nM after 24 hrs by Western blotting; format: functional, cell-based
MDA-MB-231 [7] = assay: Induction of apoptosis in human MDA-MB-231 cells assessed as cIAP2 degradation at 10 nM after 24 hrs by Western blotting; format: functional, cell-based
MDA-MB-231 [8] = assay: Induction of apoptosis in human MDA-MB-231 cells assessed as PARP cleavage at 3 nM after 24 hrs by Western blotting; format: functional, cell-based
MDA-MB-231 [9] = assay: Induction of apoptosis in human MDA-MB-231 cells assessed as caspase-3 processing at 10 nM after 24 hrs by Western blotting; format: functional, cell-based
MDA-MB-231 [10] = assay: Induction of apoptosis in human MDA-MB-231 cells assessed as cIAP2 degradation at 30 nM after 24 hrs by Western blotting; format: functional, cell-based
MDA-MB-231 [11] = assay: Induction of apoptosis in human MDA-MB-231 cells assessed as caspase-3 processing at 30 nM after 24 hrs by Western blotting; format: functional, cell-based
MDA-MB-231 [12] = assay: Induction of apoptosis in human MDA-MB-231 cells assessed as PARP cleavage at 30 nM after 24 hrs by Western blotting; format: functional, cell-based
MDA-MB-231 [13] = assay: Drug uptake in human MDA-MB-231 cells assessed as intracellular concentration at 300 nM after 3 hrs by LC-MS/MS; format: ADME, cell-based; conditions: mda-mb-231, 3 h, 0.3 µM
MDA-MB-231 [14] = assay: Antitumor activity against human MDA-MB-231 cells xenografted in SCID mouse assessed as inhibition tumor growth intravenously administered on day 1 to 5 and 8 to 12 post tumor implantation; format: functional, cell-based
Mus musculus [15] = assay: Toxicity in SCID mouse xenografted with human MDA-MB-231 cells assessed as weight loss at 5 mg/kg, iv administered on day 1 to 5 and 8 to 12 post tumor implantation; format: organism-based; set-up: dose 5 mg/kg, route intravenous; conditions: in vivo
MDA-MB-231 [16] = assay: Antitumor activity against human MDA-MB-231 cells xenografted in SCID mouse assessed as tumor size at 5 mg/kg, iv administered on day 1 to 5 and 8 to 12 post tumor implantation measured on day 50 (reference value: 1136 mm'3); format: functional
MDA-MB-231 [17] = conditions: Homo sapiens, 5 mg/kg
MDA-MB-231 [18] = assay: Drug uptake in human MDA-MB-231 cells assessed as intracellular concentration at 300 nM after 1 min by LC-MS/MS; format: ADME, cell-based; conditions: mda-mb-231, 1 min, 0.3 µM
[19] = target: T2, Baculoviral IAP repeat-containing protein 2 (Homo sapiens, UniProt Q13490); assay: Competitive inhibition of human cIAP1 BIR3 domain after 2 to 3 hrs by fluorescence polarization assay
[20] = target: T2, Baculoviral IAP repeat-containing protein 2; assay: Binding affinity to human cIAP1 BIR3 domain after 2 to 3 hrs by fluorescence polarization-based assay
[21] = target: T2, Baculoviral IAP repeat-containing protein 2; assay: Competitive inhibition of human cIAP1BIR2-BIR3 domain after 2 to 3 hrs by fluorescence polarization assay
[22] = target: T2, Baculoviral IAP repeat-containing protein 2; assay: Binding affinity to human cIAP1 BIR2-BIR3 domain after 2 to 3 hrs by fluorescence polarization-based assay
MDA-MB-231 [23] = assay: Induction of apoptosis in human MDA-MB-231 cells assessed as cIAP1 degradation at 1 nM after 24 hrs by Western blotting; format: functional, cell-based
MDA-MB-231 [24] = assay: Induction of apoptosis in human MDA-MB-231 cells assessed as cIAP2 degradation at 1 nM after 24 hrs by Western blotting; format: functional, cell-based
MDA-MB-231 [25] = assay: Induction of apoptosis in human MDA-MB-231 cells assessed as caspase-3 processing at 3 nM after 24 hrs by Western blotting; format: functional, cell-based
Mus musculus [26] = assay: Toxicity in SCID mouse xenografted with human MDA-MB-231 cells assessed as weight loss at […], iv administered on day 2 and 9; format: organism-based; set-up: dose 7.5 mg/kg, route intravenous; conditions: in vivo

## CC(=O)N[C@@H](Cc1c[nH]c2ccccc12)C(=O)N[C@H]1CCCC[C@H]2CC[C@@H](C(=O)N[C@@H](c3ccccc3)c3cn(CCCCc4ccc(CCCCn5cc([C@@H](NC(=O)[C@@H]6CC[C@@H]7CCCC[C@H](NC(=O)[C@H](Cc8c[nH]c9ccccc89)NC(C)=O)C(=O)N76)c6ccccc6)nn5)cc4)nn3)N2C1=O
[1]
  IC50: > 50000 nM
[2]
  IC50: > 50000 nM
[3]
  Ki: > 10000 nM
MDA-MB-231 [4]
  IC50: > 100000 nM
[5]
  Ki: > 10000 nM

## CN[C@@H](C)C(=O)N[C@H]1CCCC[C@H]2CC[C@@H](C(=O)N[C@@H](c3ccccc3)c3cn(CCCc4ccc(CCCn5cc([C@@H](NC(=O)[C@@H]6CC[C@@H]7CCCC[C@H](NC(=O)[C@H](C)NC)C(=O)N76)c6ccccc6)nn5)cc4)nn3)N2C1=O
MDA-MB-231 [6]
  Activity: Active
MDA-MB-231 [7]
  Activity: Active
MDA-MB-231 [8]
  Activity: Active
MDA-MB-231 [9]
  Activity: Active

## CN[C@@H](C)C(=O)N[C@H]1CCCC[C@H]2CC[C@@H](C(=O)N[C@@H](c3ccccc3)c3cn(CCc4ccc(CCn5cc([C@@H](NC(=O)[C@@H]6CC[C@@H]7CCCC[C@H](NC(=O)[C@H](C)NC)C(=O)N76)c6ccccc6)nn5)cc4)nn3)N2C1=O
MDA-MB-231 [10]
  Activity: Active
MDA-MB-231 [11]
  Activity: inactive
MDA-MB-231 [12]
  Activity: inactive
MDA-MB-231 [13]
  Drug uptake: 67.7 nM

## CN[C@@H](C)C(=O)N[C@H]1CCCC[C@H]2CC[C@@H](C(=O)N[C@@H](c3ccccc3)c3cn(CCCCCOCCCCCn4cc([C@@H](NC(=O)[C@@H]5CC[C@@H]6CCCC[C@H](NC(=O)[C@H](C)NC)C(=O)N65)c5ccccc5)nn4)nn3)N2C1=O
MDA-MB-231 [14]
  Activity: Dose-dependent effect
Mus musculus [15]
  Activity: Toxic
MDA-MB-231 [16]
  Activity: 269 mm3
MDA-MB-231 [17]
  inhibition: Active

## CN[C@@H](C)C(=O)N[C@H]1CCCC[C@H]2CC[C@@H](C(=O)N[C@@H](c3ccccc3)c3cn(CCOCCOCCOCCn4cc([C@@H](NC(=O)[C@@H]5CC[C@@H]6CCCC[C@H](NC(=O)[C@H](C)NC)C(=O)N65)c5ccccc5)nn4)nn3)N2C1=O
MDA-MB-231 [18]
  Drug uptake: 6.7 nM
MDA-MB-231 [13]
  Drug uptake: 7.3 nM

## CN[C@@H](C)C(=O)N[C@H]1CCCC[C@H]2CC[C@@H](C(=O)N[C@@H](c3ccccc3)c3cn(Cc4ccc(Cn5cc([C@@H](NC(=O)[C@@H]6CC[C@@H]7CCCC[C@H](NC(=O)[C@H](C)NC)C(=O)N76)c6ccccc6)nn5)cc4)nn3)N2C1=O
MDA-MB-231 [11]
  Activity: inactive
MDA-MB-231 [12]
  Activity: inactive
MDA-MB-231 [18]
  Drug uptake: 21.2 nM
MDA-MB-231 [13]
  Drug uptake: 75.2 nM

## CN[C@@H](C)C(=O)N[C@H]1CCCC[C@H]2CC[C@@H](C(=O)N[C@@H](c3ccccc3)c3cn(CCCCc4ccc(CCCCn5cc([C@@H](NC(=O)[C@@H]6CC[C@@H]7CCCC[C@H](NC(=O)[C@H](C)NC)C(=O)N76)c6ccccc6)nn5)cc4)nn3)N2C1=O
[19]
  IC50: 4.6 nM
[20]
  Ki: < 1 nM
[21]
  IC50: 5.7 nM
[22]
  Ki: 1.5 nM
MDA-MB-231 [23]
  Activity: Active
MDA-MB-231 [24]
  Activity: Active
MDA-MB-231 [8]
  Activity: Active
MDA-MB-231 [25]
  Activity: Active
MDA-MB-231 [18]
  Drug uptake: 106 nM
MDA-MB-231 [13]
  Drug uptake: 541 nM
MDA-MB-231 [4]
  IC50: 3.3 nM

## CN[C@@H](C)C(=O)N[C@H]1CCCC[C@H]2CC[C@@H](C(=O)N[C@@H](c3ccccc3)c3cn(CCCCCCc4ccc(CCCCCCn5cc([C@@H](NC(=O)[C@@H]6CC[C@@H]7CCCC[C@H](NC(=O)[C@H](C)NC)C(=O)N76)c6ccccc6)nn5)cc4)nn3)N2C1=O
MDA-MB-231 [23]
  Activity: Active
MDA-MB-231 [24]
  Activity: Active
MDA-MB-231 [8]
  Activity: Active
MDA-MB-231 [25]
  Activity: Active

## CC(=O)O[C@@]12CO[C@@H]1C[C@H](O)[C@@]1(C)C(=O)[C@H](O)C3=C(C)[C@@H](OC(=O)[C@H](O)[C@@H](NC(=O)OC(C)(C)C)c4ccccc4)C[C@@](O)([C@@H](OC(=O)c4ccccc4)[C@H]21)C3(C)C.O.O.O [DOCETAXEL]
Mus musculus [26]
  Activity: Toxic
